The values that follow come from PMC11345830, “Exploration of Hydrazide-Based HDAC8 PROTACs for the Treatment of Hematological Malignancies and Solid Tumors” (Journal of Medicinal Chemistry, 2024).

Each structure is given as a SMILES string.

The target in the test is T1, HDAC8 (Homo sapiens, UniProt Q9BY41).
T1 sequence (Q9BY41 1-377): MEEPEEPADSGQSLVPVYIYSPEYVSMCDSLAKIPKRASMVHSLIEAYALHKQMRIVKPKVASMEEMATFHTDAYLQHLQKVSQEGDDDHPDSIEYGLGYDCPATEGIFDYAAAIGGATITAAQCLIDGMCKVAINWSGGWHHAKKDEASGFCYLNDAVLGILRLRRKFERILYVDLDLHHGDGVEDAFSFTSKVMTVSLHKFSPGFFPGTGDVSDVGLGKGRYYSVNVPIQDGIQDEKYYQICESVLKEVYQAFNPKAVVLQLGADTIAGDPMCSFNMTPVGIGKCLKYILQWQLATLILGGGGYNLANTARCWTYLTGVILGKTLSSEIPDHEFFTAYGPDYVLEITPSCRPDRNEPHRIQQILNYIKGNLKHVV
The experiment in a line: HDAC8 degradation in Jurkat cells, Western blot. The note with it: for inhibition at 0.1 µM / Dmax: Jurkat; for inhibition at 0.1 µM: read-out: Degradation (%) at 100 nM (HDAC8); for Dmax: read-out: Dmax (HDAC8 degradation); for DC50: read-out: DC50 (HDAC8 degradation).

Take `CCCCCCNNC(=O)c1ccc(CNC(=O)C2CCN(c3ccc4c(c3)C(=O)N(C3CCC(=O)NC3=O)C4=O)CC2)cc1` (centres unmarked) [Z14, 1-(2-(2,6-Dioxopiperidin-3-yl)-1,3-dioxoisoindolin-5-yl)-N-(4-(2-hexylhydrazine-1-carbonyl)benzyl)piperidine-4-carboxamide]: under “6 h”, the inhibition at 0.1 µM came to 34 ± 3%. The same measure, in the same setting: in the case of `CCCCCCNNC(=O)c1ccc(CNC(=O)CCCNc2cccc3c2C(=O)N(C2CCC(=O)NC2=O)C3=O)cc1` (centres unmarked) [Z1, 4-((2-(2,6-Dioxopiperidin-3-yl)-1,3-dioxoisoindolin-4-yl)amino)-N-(4-(2-hexylhydrazine-1-carbonyl)benzyl)butanamide] it was 73 ± 1%. The same measure, in the same setting: in the case of `CCCCCCNNC(=O)c1ccc(CNC(=O)CCCCCCCCCCC(=O)N[C@H](C(=O)N2C[C@H](O)C[C@H]2C(=O)NCc2ccc(-c3scnc3C)cc2)C(C)(C)C)cc1` [Z13, N^1-(4-(2-Hexylhydrazine-1-carbonyl)benzyl)-N^12-((S)-1-((2S,4R)-4-hydroxy-2-((4-(4-methylthiazol-5-yl)benzyl)carbamoyl)pyrrolidin-1-yl)-3,3-dimethyl-1-oxobutan-2-yl)dodecanediamide] it was 65 ± 5%; in that of `CCCCCCNNC(=O)c1ccc(CNC(=O)CCCCCCCCCNc2cccc3c2C(=O)N(C2CCC(=O)NC2=O)C3=O)cc1` (centres unmarked) [Z6, 10-((2-(2,6-Dioxopiperidin-3-yl)-1,3-dioxoisoindolin-4-yl)amino)-N-(4-(2-hexylhydrazine-1-carbonyl)benzyl)decanamide], 43 ± 3%.

`CCCCCCNNC(=O)c1ccc(CNC(=O)CCCCCCCCCCCNc2cccc3c2C(=O)N(C2CCC(=O)NC2=O)C3=O)cc1` (centres unmarked) [Z7, 12-((2-(2,6-Dioxopiperidin-3-yl)-1,3-dioxoisoindolin-4-yl)amino)-N-(4-(2-Hexylhydrazine-1-carbonyl)benzyl)dodecanamide]: the “Degradation (%) at 100 nM (HDAC8)” value (Jurkat cells, 100 nM, 6 h, Western blot, n.d = no degradation) is “did not trigger visible degradation”.

With `CCCCCCNNC(=O)c1ccc(CNC(=O)CCCCCCCC(=O)N[C@H](C(=O)N2C[C@H](O)C[C@H]2C(=O)NCc2ccc(-c3scnc3C)cc2)C(C)(C)C)cc1` [Z11, N^1-(4-(2-Hexylhydrazine-1-carbonyl)benzyl)-N^9-((S)-1-((2S,4R)-4-hydroxy-2-((4-(4-methylthiazol-5-yl)benzyl)carbamoyl)pyrrolidin-1-yl)-3,3-dimethyl-1-oxobutan-2-yl)nonanediamide], the inhibition at 0.1 µM (6 h) is 48 ± 4%. Still for that read-out and setting: in the case of `CCCCCCNNC(=O)c1ccc(CNC(=O)CCCCNc2cccc3c2C(=O)N(C2CCC(=O)NC2=O)C3=O)cc1` (centres unmarked) [Z2, 5-((2-(2,6-Dioxopiperidin-3-yl)-1,3-dioxoisoindolin-4-yl)amino)-N-(4-(2-hexylhydrazine-1-carbonyl)benzyl)pentanamide] it was 62 ± 2%. For `CCCCCCNNC(=O)c1ccc(CNC(=O)CCCCCCNc2cccc3c2C(=O)N(C2CCC(=O)NC2=O)C3=O)cc1` (centres unmarked) [Z4, 7-((2-(2,6-Dioxopiperidin-3-yl)-1,3-dioxoisoindolin-4-yl)amino)-N-(4-(2-hexylhydrazine-1-carbonyl)benzyl)heptanamide], the Dmax (as a rule, the greatest extent of degradation seen) stood at 88%. The inhibition at 0.1 µM (6 h) was determined as 90 ± 10%. Further, the DC50 (commonly the midpoint of the concentration-degradation curve) (Jurkat cells, 6 h) was 16.7 nM.

As to `CCCCCCNNC(=O)c1ccc(CNCC2CCN(c3ccc4c(c3)C(=O)N(C3CCC(=O)NC3=O)C4=O)CC2)cc1` (centres unmarked) [Z15, 4-((((1-(2-(2,6-Dioxopiperidin-3-yl)-1,3-dioxoisoindolin-5-yl)piperidin-4-yl)methyl)amino)methyl)-N′-hexylbenzohydrazide], the inhibition at 0.1 µM (6 h) was 25 ± 2%. Still for that read-out and setting: the value for `CCCCCCNNC(=O)c1ccc(CNC(=O)CCCCCCC(=O)N[C@H](C(=O)N2C[C@H](O)C[C@H]2C(=O)NCc2ccc(-c3scnc3C)cc2)C(C)(C)C)cc1` [Z10, N^1-(4-(2-Hexylhydrazine-1-carbonyl)benzyl)-N^8-((S)-1-((2S,4R)-4-hydroxy-2-((4-(4-methylthiazol-5-yl)benzyl)carbamoyl)pyrrolidin-1-yl)-3,3-dimethyl-1-oxobutan-2-yl)octanediamide] was 14 ± 5%; that for `CCCCCCNNC(=O)c1ccc(CNC(=O)CCCCCCCNc2cccc3c2C(=O)N(C2CCC(=O)NC2=O)C3=O)cc1` (centres unmarked) [Z5, 8-((2-(2,6-Dioxopiperidin-3-yl)-1,3-dioxoisoindolin-4-yl)amino)-N-(4-(2-Hexylhydrazine-1-carbonyl)benzyl)octanamide] was 43 ± 17%. The same measure, in the same setting: the value for `CCCCCCNNC(=O)c1cccc(NCc2ccc(C(=O)N3CCC(c4ccc(NC5CCC(=O)NC5=O)cc4)CC3)cc2)c1` (centres unmarked) [Z18, 3-((4-(4-(4-((2,6-Dioxopiperidin-3-yl)amino)phenyl)piperidine-1-carbonyl)benzyl)amino)-N′-hexylbenzohydrazide] was 13 ± 4%; that for `CCCCCCNNC(=O)c1ccc(CNC(=O)CCCCCNc2cccc3c2C(=O)N(C2CCC(=O)NC2=O)C3=O)cc1` (centres unmarked) [Z3, 6-((2-(2,6-Dioxopiperidin-3-yl)-1,3-dioxoisoindolin-4-yl)amino)-N-(4-(2-hexylhydrazine-1-carbonyl)benzyl)hexanamide] was 44 ± 13%.

On to `CCCCCCNNC(=O)c1ccc(CNC(=O)CCCCC(=O)N[C@H](C(=O)N2C[C@H](O)C[C@H]2C(=O)NCc2ccc(-c3scnc3C)cc2)C(C)(C)C)cc1` [Z9, N^1-(4-(2-Hexylhydrazine-1-carbonyl)benzyl)-N^6-((S)-1-((2S,4R)-4-hydroxy-2-((4-(4-methylthiazol-5-yl)benzyl)carbamoyl)pyrrolidin-1-yl)-3,3-dimethyl-1-oxobutan-2-yl)adipamide], for which, where the note is “6 h”, the inhibition at 0.1 µM was 17 ± 8%. The same measure, in the same setting: in the case of `CCCCCCNNC(=O)c1ccc(CNC(=O)CCC(=O)N[C@H](C(=O)N2C[C@H](O)C[C@H]2C(=O)NCc2ccc(-c3scnc3C)cc2)C(C)(C)C)cc1` [Z8, N^1-(4-(2-Hexylhydrazine-1-carbonyl)benzyl)-N^4-((S)-1-((2S,4R)-4-hydroxy-2-((4-(4-methylthiazol-5-yl)benzyl)carbamoyl)pyrrolidin-1-yl)-3,3-dimethyl-1-oxobutan-2-yl)succinimide] it was 20 ± 1%. For the compound `CCCCCCNNC(=O)c1ccc(CNC(=O)CCCCCCCCC(=O)N[C@H](C(=O)N2C[C@H](O)C[C@H]2C(=O)NCc2ccc(-c3scnc3C)cc2)C(C)(C)C)cc1` [Z12, N^1-(4-(2-Hexylhydrazine-1-carbonyl)benzyl)-N^10-((S)-1-((2S,4R)-4-hydroxy-2-((4-(4-methylthiazol-5-yl)benzyl)carbamoyl)pyrrolidin-1-yl)-3,3-dimethyl-1-oxobutan-2-yl)decanediamide], the Dmax was 93%. The inhibition at 0.1 µM (6 h) was determined as 83 ± 2%. Also, the 50% degradation concentration (DC50) (Jurkat cells, 6 h) is 62.1 nM.
